Experimental data reported in patent US20090298817A1, “ANTI-AMNESIC COMPOUNDS AND PHARMACEUTICAL CO[…]” (priority 2008, published 2009).

Tested on: amnesia induced by scopolamine in rats
Experiment: passive avoidance test, amnesia induced by scopolamine in rats
Format: in vivo
Procedure: The purpose of the study is to examine the effects of etifoxine on amnesia, induced by a substance which is an antagonist of the cholinergic receptors in rats, scopolamine (see in particular Rush (1988) Behav. Neural. Biol. 1988 50:255-274).
Memory capacities are evaluated over the course of the passive avoidance test in a box with two compartments, dark and light. In a first step, the acquisition step, entering the dark compartment is associated with an unpleasant electric shock. In a second step, the retention step, the latency to enter the dark compartment is measured. The lower this latency, the more strongly the animal is suffering from amnesia.
Amnesia is induced by administering scopolamine 30 minutes before the information acquisition step.
Two series of tests were performed: • 1) Etifoxine was administered intraperitoneally 35 minutes before acquisition of the event. • 7 groups of 10 to 20 rats were formed, each group receiving the following respective treatments: • Group 1 (reference): scopolamine 0 mg/kg, etifoxine 0 mg/kg • Group 2 (control): scopolamine 0 mg/kg, etifoxine 50 mg/kg • Group 3: scopolamine 1.4 mg/kg, etifoxine 0 mg/kg • Group 4: scopolamine 1.4 mg/kg, etifoxine 6.2 mg/kg • Group 5: scopolamine 1.4 mg/kg, etifoxine 12.5 mg/kg • Group 6: scopolamine 1.4 mg/kg, etifoxine 25 mg/kg • Group 7: scopolamine 1.4 mg/kg, etifoxine 50 mg/kg • 2) Etifoxine was administered intraperitoneally immediately after acquisition of the event. • 7 groups of 10 rats were formed, each group receiving the following respective treatments: • Group 1 (reference): scopolamine 0 mg/kg, etifoxine 0 mg/kg • Group 2 (control): scopolamine 0 mg/kg, etifoxine 50 mg/kg • Group 3: scopolamine 1.4 mg/kg, etifoxine 0 mg/kg • Group 4: scopolamine 1.4 mg/kg, etifoxine 6.2 mg/kg • Group 5: scopolamine 1.4 mg/kg, etifoxine 12.5 mg/kg • Group 6: scopolamine 1.4 mg/kg, etifoxine 25 mg/kg • Group 7: scopolamine 1.4 mg/kg, etifoxine 50 mg/kg
For each test series and for each group the latency to enter the dark compartment was measured in the case of acquisition and in the case of retention.
For the first series of tests, a one-way ANOVA analysis was performed followed by the Student-Newman-Keuls test in order to find the differences between the groups. The difference is considered significant if the critical value P obtained was less than 0.05.
For the second series of tests, the non-parametric Kruskal-Wallis test was performed followed by the Dunn test in order to find the differences between the groups. The difference is considered significant if the critical value P obtained was less than 0.05.

Compound	anti-amnesic action (animals, model where memory disorder is induced by scopolamine (summary statement))	effect on the amnesic effects of scopolamine (latency to enter the dark compartment, retention) (rats, etifoxine 6.2-50 mg/kg intraperitoneally 35 minutes before acquisition, scopolamine 1.4 mg/kg 30 minutes before acquisition, FIG. 1)	effect on the amnesic effects of scopolamine (latency to enter the dark compartment, retention) (rats, etifoxine 6.2-50 mg/kg intraperitoneally immediately after acquisition, scopolamine 1.4 mg/kg 30 minutes before acquisition, FIG. 2)	time period to enter the dark compartment vs. reference groups (rats, scopolamine 1.4 mg/kg 30 minutes before acquisition, etifoxine 0, FIGS. 1, 2)
CCNC1=Nc2ccc(Cl)cc2C(C)(c2ccccc2)O1.Cl (stereo not shown) [etifoxine, 6-chloro-2-ethylamino-4-methyl-4-phenyl-4H-[3,1]benzoxazine hydrochloride]	exhibits anti-amnesic action	counteracts the amnesic effects of scopolamine according to an inverted U-shaped curve	counteracts the amnesic effects of scopolamine according to an inverted U-shaped curve	–
CN1[C@@H]2C[C@@H](OC(=O)[C@H](CO)c3ccccc3)C[C@H]1[C@@H]1O[C@@H]12 [Scopolamine]	–	–	–	significantly shorter
